According to ChEMBL document CHEMBL3217409 (Medchemcomm, 2011):
pKi: −log10 of the molar value. Calls of active or inactive are those of the source. The calls are words filed in the database; no cut-off is given here.

What was measured:
[1] = target: T1, Melatonin receptor type 1B (Homo sapiens, UniProt P49286); experiment: Displacement of 2-[125I]-iodomelatonin from human MT2 receptor expressed in CHO cells; assay type: cell-based
T1 sequence (P49286 whole entry): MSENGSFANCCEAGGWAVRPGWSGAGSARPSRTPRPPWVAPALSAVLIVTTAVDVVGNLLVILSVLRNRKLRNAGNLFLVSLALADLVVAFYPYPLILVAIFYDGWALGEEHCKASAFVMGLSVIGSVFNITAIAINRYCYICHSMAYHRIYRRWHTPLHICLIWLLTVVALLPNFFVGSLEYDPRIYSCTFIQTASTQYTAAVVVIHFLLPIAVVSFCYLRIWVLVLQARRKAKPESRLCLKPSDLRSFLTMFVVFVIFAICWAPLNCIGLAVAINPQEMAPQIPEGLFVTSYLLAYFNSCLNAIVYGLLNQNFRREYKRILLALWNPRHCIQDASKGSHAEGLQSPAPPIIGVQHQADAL

[2] = target: T2, Melatonin receptor type 1A (Homo sapiens, UniProt P48039); experiment: Displacement of 2-[125I]-iodomelatonin from human MT1 receptor expressed in CHO cells; assay type: cell-based
[3] = organism: Homo sapiens; experiment: Selectivity ratio of Ki for human MT1 receptor to Ki for human MT2 receptor
[4] = target: T2, Melatonin receptor type 1A; experiment: Intrinsic activity at human MT1 receptor expressed in CHO cells; assay type: cell-based
[5] = target: T3, Melatonin receptor type 1B (Homo sapiens) (UniProt P49286); experiment: Antagonist activity at human MT2 receptor expressed in CHO cells assessed as inhibition of melatonin-induced activity at 10 to 100 nM; assay type: cell-based
T3 sequence (whole entry): T1 sequence (P49286 whole entry)

[6] = target: T3, Melatonin receptor type 1B (Homo sapiens); experiment: Intrinsic activity at human MT2 receptor expressed in CHO cells; assay type: cell-based
[7] = target: T2, Melatonin receptor type 1A; experiment: Antagonist activity at human MT1 receptor expressed in CHO cells assessed as inhibition of melatonin-induced activity at 10 to 100 nM; assay type: cell-based

T2 sequence (P48039 whole entry): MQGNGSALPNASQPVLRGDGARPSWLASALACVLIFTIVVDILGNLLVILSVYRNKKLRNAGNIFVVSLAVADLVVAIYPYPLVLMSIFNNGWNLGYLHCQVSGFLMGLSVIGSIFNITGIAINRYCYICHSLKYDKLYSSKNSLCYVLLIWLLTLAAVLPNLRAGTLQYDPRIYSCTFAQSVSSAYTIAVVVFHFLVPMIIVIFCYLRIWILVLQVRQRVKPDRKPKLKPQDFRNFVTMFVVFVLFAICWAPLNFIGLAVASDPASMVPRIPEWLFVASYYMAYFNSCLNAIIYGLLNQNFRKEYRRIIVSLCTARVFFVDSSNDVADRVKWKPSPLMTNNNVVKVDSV

| SMILES | pKi [1] | pKi [2] | Ratio Ki [3] | Activity [4] | inhibition [5] | Activity [6] | inhibition [7] |
| --- | --- | --- | --- | --- | --- | --- | --- |
| COc1ccc2[nH]c(Cn3ccc4ccccc43)c(CCNC(=O)C3CCC3)c2c1 | 7.09 | 7.24 | – | – | – | – | – |
| COc1ccc2[nH]c(CN3Cc4ccccc4C3)c(CCNC(C)=O)c2c1 | 8.65 | 6.55 | 124 | inactive | Active | inactive | Active |
| CCC(=O)NCCc1c(CN2Cc3ccccc3C2)[nH]c2ccc(OC)cc12 | 8.43 | 8.25 | – | – | – | – | – |
| COc1ccc2[nH]c(CN3CCc4ccccc4C3)c(CCNC(C)=O)c2c1 | 7.67 | 6.60 | – | – | – | – | – |

Continued, values first:

| pKi [1] | pKi [2] | Ratio Ki [3] | Activity [4] | inhibition [5] | Activity [6] | inhibition [7] | SMILES |
| --- | --- | --- | --- | --- | --- | --- | --- |
| 6.70 | 6.95 | – | – | – | – | – | COc1ccc2[nH]c(CN3Cc4ccccc4C3)c(CCNC(=O)C3CCC3)c2c1 |
| 8.77 | 5.87 | 790 | – | – | – | – | CCC(=O)NCCCc1cc(OC)ccc1OCc1cccc(OC)c1 |
| 8.03 | 7.62 | – | – | – | – | – | C=CCC(=O)NCCc1c(CN2Cc3ccccc3C2)[nH]c2ccc(OC)cc12 |
| – | – | 95 | – | – | – | – | COc1ccc2[nH]c(CN3CCc4ccccc43)c(CCNC(C)=O)c2c1 |
| 7.47 | 7.21 | – | – | – | – | – | COc1ccc2[nH]c(CN3Cc4ccccc4C3)c(CCNC(=O)C3CC3)c2c1 |
| 8.24 | 6.74 | – | – | – | – | – | COc1ccc2[nH]c(Cn3ccc4ccccc43)c(CCNC(C)=O)c2c1 |
